{"source": "patent US20230298697A1", "about": "“DETERMINING VIABILITY AND TREATMENT OF DISEASE AGENTS” (priority 2022, published 2023)", "key": {"[1]": {"test_system": "Mycobacterium tuberculosis H37Rv", "assay": "Minimum Inhibitory Concentration 50 (MIC50) determination", "type": "cell-based", "conditions": "OD600 growth inhibition, 72 hours, 7H9-rich media"}, "[2]": {"test_system": "Mycobacterium tuberculosis H37Rv", "assay": "Time-kill assay (CFU counting)", "type": "cell-based", "conditions": "for CFUs /ml (10^6) h0: h0 (start of treatment); for Relative CFUs (log10) h72: h72 relative to h0"}, "[3]": {"test_system": "Mycobacterium tuberculosis H37Rv", "conditions": "compared with other frontline drugs; stated as known; cited from earlier work"}}, "note": "Values joined by “and” are separate entries in the source; they are usually repeats but may differ in a detail not shown here. Identical values can stand only once."}
{"smiles": "COc1nc2ccc(Br)cc2cc1[C@@H](c1ccccc1)[C@@](O)(CCN(C)C)c1cccc2ccccc12", "note": "[BDQ, Bedaquiline]", "values": [{"measurement": "MIC50", "setting": "[1]", "value": 1.61, "unit": "µg/mL"}, {"measurement": "CFUs /ml (10^6) h0", "setting": "[2]; 1.15 µg/ml", "value": "61 CFUs /ml (10^6) and 69 CFUs /ml (10^6) and 72 CFUs /ml (10^6)"}, {"measurement": "CFUs /ml (10^6) h24", "setting": "[2]; 1.15 µg/ml", "value": "91 CFUs /ml (10^6) and 96 CFUs /ml (10^6) and 101 CFUs /ml (10^6)"}, {"measurement": "CFUs /ml (10^6) h72", "setting": "[2]; 1.15 µg/ml", "value": "352 CFUs /ml (10^6) and 362 CFUs /ml (10^6) and 346 CFUs /ml (10^6)"}, {"measurement": "Relative CFUs (log10) h72", "setting": "[2]; 1.15 µg/ml", "value": "0.761 log10 and 0.72 log10 and 0.682 log10"}, {"measurement": "CFUs /ml (10^6) h0", "setting": "[2]; 5.75 µg/ml", "value": "55 CFUs /ml (10^6) and 53 CFUs /ml (10^6) and 61 CFUs /ml (10^6)"}, {"measurement": "CFUs /ml (10^6) h24", "setting": "[2]; 5.75 µg/ml", "value": "97 CFUs /ml (10^6) and 81 CFUs /ml (10^6) and 100 CFUs /ml (10^6)"}, {"measurement": "CFUs /ml (10^6) h72", "setting": "[2]; 5.75 µg/ml", "value": "115 CFUs /ml (10^6) and 132 CFUs /ml (10^6) and 96 CFUs /ml (10^6)"}, {"measurement": "Relative CFUs (log10) h72", "setting": "[2]; 5.75 µg/ml", "value": "0.32 log10 and 0.396 log10 and 0.197 log10"}, {"measurement": "speed of killing of Mycobacterium tuberculosis", "setting": "[3]", "value": "kills Mycobacterium tuberculosis relatively slowly"}]}
{"smiles": "CC(C)/N=c1\\cc2n(-c3ccc(Cl)cc3)c3ccccc3nc-2cc1Nc1ccc(Cl)cc1", "note": "[CFZ, Clofazimine]", "values": [{"measurement": "CFUs /ml (10^6) h0", "setting": "[2]; 0.0728 µg/ml", "value": "239 CFUs /ml (10^6) and 141 CFUs /ml (10^6) and 148 CFUs /ml (10^6)"}, {"measurement": "CFUs /ml (10^6) h24", "setting": "[2]; 0.0728 µg/ml", "value": "116 CFUs /ml (10^6) and 112 CFUs /ml (10^6) and 124 CFUs /ml (10^6)"}, {"measurement": "CFUs /ml (10^6) h72", "setting": "[2]; 0.0728 µg/ml", "value": "176 CFUs /ml (10^6) and 192 CFUs /ml (10^6) and 207 CFUs /ml (10^6)"}, {"measurement": "Relative CFUs (log10) h72", "setting": "[2]; 0.0728 µg/ml", "value": "-0.133 log10 and 0.134 log10 and 0.146 log10"}, {"measurement": "CFUs /ml (10^6) h0", "setting": "[2]; 0.728 µg/ml", "value": "158 CFUs /ml (10^6) and 182 CFUs /ml (10^6) and 101 CFUs /ml (10^6)"}, {"measurement": "CFUs /ml (10^6) h24", "setting": "[2]; 0.728 µg/ml", "value": "87 CFUs /ml (10^6) and 69 CFUs /ml (10^6) and 67 CFUs /ml (10^6)"}, {"measurement": "CFUs /ml (10^6) h72", "setting": "[2]; 0.728 µg/ml", "value": "41 CFUs /ml (10^6) and 26 CFUs /ml (10^6) and 52 CFUs /ml (10^6)"}]}
{"smiles": "NNC(=O)c1ccncc1", "note": "[INH, Isoniazid]", "values": [{"measurement": "MIC50", "setting": "[1]", "value": 0.2, "unit": "µg/mL"}, {"measurement": "CFUs /ml (10^6) h24", "setting": "[2]; 0.018 µg/ml", "value": "182 CFUs /ml (10^6) and 160 CFUs /ml (10^6) and 171 CFUs /ml (10^6)"}, {"measurement": "CFUs /ml (10^6) h72", "setting": "[2]; 0.018 µg/ml", "value": "184 CFUs /ml (10^6) and 194 CFUs /ml (10^6) and 203 CFUs /ml (10^6)"}, {"measurement": "CFUs /ml (10^6) h0", "setting": "[2]; 0.18 µg/ml", "value": "93 CFUs /ml (10^6) and 77 CFUs /ml (10^6) and 70 CFUs /ml (10^6)"}, {"measurement": "CFUs /ml (10^6) h24", "setting": "[2]; 0.18 µg/ml", "value": "60 CFUs /ml (10^6) and 90 CFUs /ml (10^6)"}, {"measurement": "CFUs /ml (10^6) h72", "setting": "[2]; 0.18 µg/ml", "value": "78 CFUs /ml (10^6) and 97 CFUs /ml (10^6) and 70 CFUs /ml (10^6)"}, {"measurement": "Relative CFUs (log10) h72", "setting": "[2]; 0.18 µg/ml", "value": "-0.076 log10 and 0.1 log10 and 0 log10"}, {"measurement": "CFUs /ml (10^6) h0", "setting": "[2]; 0.36 µg/ml", "value": "159 CFUs /ml (10^6) and 180 CFUs /ml (10^6) and 187 CFUs /ml (10^6)"}, {"measurement": "CFUs /ml (10^6) h72", "setting": "[2]; 0.36 µg/ml", "value": "0.1 CFUs /ml (10^6)"}, {"measurement": "Relative CFUs (log10) h72", "setting": "[2]; 0.36 µg/ml", "value": "-3.201 log10 and -3.255 log10 and -3.272 log10"}, {"measurement": "CFUs /ml (10^6) h0", "setting": "[2]; 1.8 µg/ml", "value": "77 CFUs /ml (10^6) and 68 CFUs /ml (10^6) and 87 CFUs /ml (10^6)"}, {"measurement": "CFUs /ml (10^6) h72", "setting": "[2]; 1.8 µg/ml", "value": "0.1 CFUs /ml (10^6)"}, {"measurement": "Relative CFUs (log10) h72", "setting": "[2]; 1.8 µg/ml", "value": "-2.886 log10 and -2.833 log10 and -2.94 log10"}]}
{"smiles": "CC(=O)NC[C@H]1CN(c2ccc(N3CCOCC3)c(F)c2)C(=O)O1", "note": "[LZD, Linezolid]", "values": [{"measurement": "MIC50", "setting": "[1]", "value": 1.13, "unit": "µg/mL"}, {"measurement": "CFUs /ml (10^6) h0", "setting": "[2]; 0.0844 µg/ml", "value": "81 CFUs /ml (10^6) and 100 CFUs /ml (10^6) and 98 CFUs /ml (10^6)"}, {"measurement": "CFUs /ml (10^6) h24", "setting": "[2]; 0.0844 µg/ml", "value": "135 CFUs /ml (10^6) and 147 CFUs /ml (10^6) and 127 CFUs /ml (10^6)"}, {"measurement": "CFUs /ml (10^6) h72", "setting": "[2]; 0.0844 µg/ml", "value": "249 CFUs /ml (10^6) and 245 CFUs /ml (10^6) and 239 CFUs /ml (10^6)"}, {"measurement": "Relative CFUs (log10) h72", "setting": "[2]; 0.0844 µg/ml", "value": "0.488 log10 and 0.389 log10 and 0.387 log10"}, {"measurement": "CFUs /ml (10^6) h0", "setting": "[2]; 0.844 µg/ml", "value": "61 CFUs /ml (10^6) and 68 CFUs /ml (10^6) and 60 CFUs /ml (10^6)"}, {"measurement": "CFUs /ml (10^6) h24", "setting": "[2]; 0.844 µg/ml", "value": "63 CFUs /ml (10^6) and 74 CFUs /ml (10^6) and 92 CFUs /ml (10^6)"}, {"measurement": "CFUs /ml (10^6) h72", "setting": "[2]; 0.844 µg/ml", "value": "71 CFUs /ml (10^6) and 86 CFUs /ml (10^6) and 72 CFUs /ml (10^6)"}, {"measurement": "Relative CFUs (log10) h72", "setting": "[2]; 0.844 µg/ml", "value": "0.066 log10 and 0.102 log10 and 0.079 log10"}]}
{"smiles": "COc1c(N2C[C@@H]3CCCN[C@@H]3C2)c(F)cc2c(=O)c(C(=O)O)cn(C3CC3)c12", "note": "[MXF, Moxifloxacin hydrocholoride]", "values": [{"measurement": "MIC50", "setting": "[1]", "value": 0.07, "unit": "µg/mL"}, {"measurement": "CFUs /ml (10^6) h0", "setting": "[2]; 0.075 µg/ml", "value": "69 CFUs /ml (10^6) and 53 CFUs /ml (10^6) and 72 CFUs /ml (10^6)"}, {"measurement": "CFUs /ml (10^6) h24", "setting": "[2]; 0.075 µg/ml", "value": "90 CFUs /ml (10^6) and 88 CFUs /ml (10^6) and 80 CFUs /ml (10^6)"}, {"measurement": "CFUs /ml (10^6) h72", "setting": "[2]; 0.075 µg/ml", "value": "159 CFUs /ml (10^6) and 165 CFUs /ml (10^6) and 147 CFUs /ml (10^6)"}, {"measurement": "Relative CFUs (log10) h72", "setting": "[2]; 0.075 µg/ml", "value": "0.363 log10 and 0.493 log10 and 0.31 log10"}, {"measurement": "CFUs /ml (10^6) h0", "setting": "[2]; 0.3 µg/ml", "value": "43 CFUs /ml (10^6) and 50 CFUs /ml (10^6)"}, {"measurement": "CFUs /ml (10^6) h72", "setting": "[2]; 0.3 µg/ml", "value": "0.1 CFUs /ml (10^6)"}, {"measurement": "Relative CFUs (log10) h72", "setting": "[2]; 0.3 µg/ml", "value": "-2.633 log10 and -2.699 log10"}]}
{"smiles": "O=[N+]([O-])c1cn2c(n1)OC[C@@H](OCc1ccc(OC(F)(F)F)cc1)C2", "note": "[PA824, Pretomanid]", "values": [{"measurement": "MIC50", "setting": "[1]", "value": 0.15, "unit": "µg/mL"}]}
{"smiles": "CO[C@H]1/C=C/O[C@@]2(C)Oc3c(C)c(O)c4c(O)c(c(/C=N/N5CCN(C)CC5)c(O)c4c3C2=O)NC(=O)/C(C)=C\\C=C\\[C@H](C)[C@H](O)[C@@H](C)[C@@H](O)[C@@H](C)[C@H](OC(C)=O)[C@@H]1C", "note": "[RIF, Rifampicin]", "values": [{"measurement": "MIC50", "setting": "[1]", "value": 0.02, "unit": "µg/mL"}]}
